For eleven compounds, IC50 results are on record in patent US12281125B2, “Rapamycin derivatives” (NOVARTIS AG, priority 2018, dated 2025).

pIC50: −log10 of the molar value.

As usually defined, the pIC50 is the negative decadic logarithm of the IC50, by convention in mol/L.

This assay deals with mTORc1 signaling, pS6 (Ser240/244) in MEF TSCl−/− cells. Kind of assay: Cell-based assay for rapalog potency (pS6) in MEF TSCl−/− cells. The following applies: Mus musculus, 2 hours treatment, average from multiple assays. How it is done:
Rapalog potency was determined using MEF TSCl−/− cell based assay. MEF TSCl−/− cells are Mouse Embryonic Fibroblasts deficient in Tuberous sclerosis protein—TSCl, which negatively regulates mTORc1 signaling and thus display constitutive mTORc1 activation, resulting in phosphorylation (activation) of downstream molecules. This cell-based assay is used to measure inhibition (de-phosphorylation) of S6 and 4EBP1 by rapalogs or other mTOR inhibitors.
MEF TSCl−/− cells were plated on Poly-D-lysine coated 384 well Griener clear bottom plates and incubated overnight at 37° C., 5% CO2. On the following day, cells were washed 8 times with “Hard starve” solution (1 L DPBS+1 g D-(+) glucose+10 ml of 7.5% Sodium Bicarbonate+20 ml of 1M HEPES) and incubated for further 2 hours in the same solution. Cells were next treated with compounds with decreasing concentrations (8 points at 3.16 fold dilutions) and incubated for 2 hours at 37° C., 5% CO2. Cells were fixed with 4% paraformaldehyde for 30 min and washed 5 times with TBS-EDTA followed by immuno-staining with fluorescent tag labeled antibodies for pS6 (Ser240/244) (Cell Signaling #9468) and p4EBP1 (Thr 37/46) (Cell Signaling #5123). Nuclei were visualized with Hoechst (ThermoFisher Scientific #H3570) staining. Cells were imaged (InCell 600) using respective fluorescence channels and the potency of mTOR inhibitors was defined by pS6 IC50 (nM).
In vitro potency of mTOR inhibitors was defined by pS6 IC50 (nM) in MEF TSCl−/− cells.
IC50 values are calculated as the average from multiple assays.
Regarding `CN[C@@H]1C[C@@H]2CC[C@@H](C)[C@@](O)(O2)C(=O)C(=O)N2CCCC[C@H]2C(=O)O[C@H]([C@H](C)C[C@@H]2CC[C@@H](O)[C@H](OC)C2)CC[C@H](C)/C=C(\C)[C@@H](O)[C@@H](OC)C(=O)[C@H](C)C[C@H](C)/C=C/C=C/C=C/1C` [Compound 32], the pIC50 is 7.74. Under `CN[C@H]1C[C@@H]2CC[C@@H](C)[C@@](O)(O2)C(=O)C(=O)N2CCCC[C@H]2C(=O)O[C@H]([C@H](C)C[C@@H]2CC[C@@H](O)[C@H](OC)C2)CC[C@H](C)/C=C(\C)[C@@H](O)[C@@H](OC)C(=O)[C@H](C)C[C@H](C)/C=C/C=C/C=C/1C` [Compound 33] stands 9.17. Compound `CO[C@@H]1C[C@H](C[C@@H](C)[C@@H]2CC[C@H](C)/C=C(\C)[C@@H](O)[C@@H](OC)C(=O)[C@H](C)C[C@H](C)/C=C/C=C/C=C(\C)[C@H](N(O)C(=O)OC(C)(C)C)C[C@@H]3CC[C@@H](C)[C@@](O)(O3)C(=O)C(=O)N3CCCC[C@H]3C(=O)O2)CC[C@H]1O` [Compound 34] gave a pIC50 of 7.57. For `CO[C@@H]1C[C@H](C[C@@H](C)[C@@H]2CC[C@H](C)/C=C(\C)[C@@H](O)[C@@H](OC)C(=O)[C@H](C)C[C@H](C)/C=C/C=C/C=C(\C)[C@@H](N(O)C(=O)OC(C)(C)C)C[C@@H]3CC[C@@H](C)[C@@](O)(O3)C(=O)C(=O)N3CCCC[C@H]3C(=O)O2)CC[C@H]1O` [Compound 35] the value was 8.36; for `CO[C@@H]1C[C@H](C[C@@H](C)[C@@H]2CC[C@H](C)/C=C(\C)[C@@H](O)[C@@H](OC)C(=O)[C@H](C)C[C@H](C)/C=C/C=C/C=C(\C)[C@H](NO)C[C@@H]3CC[C@@H](C)[C@@](O)(O3)C(=O)C(=O)N3CCCC[C@H]3C(=O)O2)CC[C@H]1O` [Compound 36], 8.80. In turn, `CO[C@@H]1C[C@H](C[C@@H](C)[C@@H]2CC[C@H](C)/C=C(\C)[C@@H](O)[C@@H](OC)C(=O)[C@H](C)C[C@H](C)/C=C/C=C/C=C(\C)[C@@H](NO)C[C@@H]3CC[C@@H](C)[C@@](O)(O3)C(=O)C(=O)N3CCCC[C@H]3C(=O)O2)CC[C@H]1O` [Compound 37] showed a pIC50 of 9.68. Under `CO[C@@H]1C[C@H](C[C@@H](C)[C@@H]2CC[C@H](C)/C=C(\C)[C@@H](O)[C@@H](OC)C(=O)[C@H](C)C[C@H](C)/C=C/C=C/C=C(\C)[C@@H](NCCS(=O)(=O)O)C[C@@H]3CC[C@@H](C)[C@@](O)(O3)C(=O)C(=O)N3CCCC[C@H]3C(=O)O2)CC[C@H]1O` [Compound 38] stands under 6.30; under `CO[C@@H]1C[C@H](C[C@@H](C)[C@@H]2CC[C@H](C)/C=C(\C)[C@@H](O)[C@@H](OC)C(=O)[C@H](C)C[C@H](C)/C=C/C=C/C=C(\C)[C@H](NCCS(=O)(=O)O)C[C@@H]3CC[C@@H](C)[C@@](O)(O3)C(=O)C(=O)N3CCCC[C@H]3C(=O)O2)CC[C@H]1O` [Compound 39], under 6.30; under `CO[C@@H]1C[C@H](C[C@@H](C)[C@@H]2CC[C@H](C)/C=C(\C)[C@@H](O)[C@@H](OC)C(=O)[C@H](C)C[C@H](C)/C=C/C=C/C=C(\C)[C@@H](NCCS(=O)(=O)O)C[C@@H]3CC[C@@H](C)[C@@](O)(O3)C(=O)C(=O)N3CCCC[C@H]3C(=O)O2)CC[C@H]1OCCO` [Compound 40], 6.80. Under `CO[C@@H]1C[C@H](C[C@@H](C)[C@@H]2CC[C@H](C)/C=C(\C)[C@@H](O)[C@@H](OC)C(=O)[C@H](C)C[C@H](C)/C=C/C=C/C=C(\C)[C@H](NCCS(=O)(=O)O)C[C@@H]3CC[C@@H](C)[C@@](O)(O3)C(=O)C(=O)N3CCCC[C@H]3C(=O)O2)CC[C@H]1OCCO` [Compound 41] stands 7.48. For `CO[C@@H]1C[C@H](C[C@@H](C)[C@@H]2CC[C@H](C)/C=C(\C)[C@@H](O)[C@@H](OC)C(=O)[C@H](C)C[C@H](C)/C=C/C=C/C=C(\C)C(NC(=O)OC(C)(C)C)C[C@@H]3CC[C@@H](C)[C@@](O)(O3)C(=O)C(=O)N3CCCC[C@H]3C(=O)O2)CC[C@H]1O` (some centres unmarked) [Intermediate 8] the value was 9.74.
